Data as given in ChEMBL document CHEMBL5634091, “Cantharidin analogue alleviates dextran sulfate sodium-induced colitis in mice by inhibiting the activation of NF-κB signaling” (Eur J Med Chem, 2023).
Calls of active or inactive are those of the source. The rule behind the calls is not given here.

What was measured:
[1] = Selectivity index, ratio of CC50 for cytotoxicity against LPS/IFNgamma induced mouse RAW264.7 cells to IC50 for antiinflammatory activity in mouse RAW264.7 cells assessed as inhibition in LPS/IFNgamma-induced NO production; assay type: toxicity, cell-based; settings: RAW264.7 cells induced with LPS/IFNgamma, read-out: Ratio IC50
[2] = Inhibition of TNF-alpha induced NF-kappaB activation in HEK293T cells preincubated for 4 hrs and followed by TNF-alpha stimulation and measured after 4 hrs by dual-luciferase reporter assay; assay type: cell-based; settings: Homo sapiens, HEK-293T
[3] = Cytotoxicity against LPS/IFNgamma induced mouse RAW264.7 cells assessed as inhibition of cell growth preincubated for 24 hrs followed by LPS/IFNgamma stimulation and measured after 24 hrs by SRB assay; assay type: toxicity, cell-based; settings: RAW264.7 cells induced with LPS/IFNgamma, time 48 hrs
[4] = Selectivity index, ratio of CC50 for cytotoxicity against TNF-alpha induced HEK293T cells to IC50 for inhibition of TNF-alpha induced NF-kappaB activation in HEK293T cells; assay type: toxicity, cell-based; settings: human, HEK293T cells induced with TNF-alpha; read-out: Ratio IC50
[5] = Cytotoxicity against TNF-alpha induced HEK293T cells assessed as inhibition of cell growth preincubated for 24 hrs followed by TNFalpha stimulation and measured after 4 hrs by SRB assay; assay type: toxicity, cell-based, HEK-293T; settings: human, HEK293T cells induced with TNF-alpha; time 28 hrs
RAW264.7 [6] = experiment: Antiinflammatory activity in mouse RAW264.7 cells assessed as inhibition in LPS/IFNgamma-induced NO production preincubated for 2 hrs followed by LPS/IFNgamma stimulation and measured after 24 hrs by Griess reagent based assay; assay type: functional, cell-based
RAW264.7 [7] = experiment: Antiinflammatory activity in mouse RAW264.7 cells assessed as inhibition in LPS/IFNgamma-induced NO production at 200 uM preincubated for 2 hrs followed by LPS/IFNgamma stimulation and measured after 24 hrs by Griess reagent based assay relative to control; assay type: functional; settings: time 26 hrs
[8] = Toxicity in po dosed Kunming mouse assessed as maximum tolerated dose; assay type: organism-based; settings: in vivo
[9] = Toxicity in Kunming mouse assessed as effect on kidney by measuring systemic edema at 117 mg/kg, po measured for 15 days; assay type: organism-based; settings: in vivo, 360 h, time 15 day
[10] = Toxicity in Kunming mouse assessed as number of mouse survived at 82 mg/kg, po measured for 15 days; assay type: organism-based; settings: in vivo, 360 h, time 15 day
[11] = Toxicity in Kunming mouse assessed as increase in body weight at 40 mg/kg, po measured for 15 days (reference value: 12.38%); assay type: organism-based; settings: in vivo, 360 h, time 15 day
Mus musculus [12] = species on record: Mus musculus; experiment: Anti-inflammatory activity in C57BL/6 mouse model of DSS-induced acute ulcerative colitis; assay type: functional, organism-based
[13] = Toxicity in Kunming mouse assessed as number of mouse survived at 117 mg/kg, po measured for 15 days; assay type: organism-based; settings: in vivo, 360 h, time 15 day
[14] = Toxicity in Kunming mouse assessed as number of mouse survived at 57 mg/kg, po measured for 15 days; assay type: organism-based; settings: in vivo, 360 h, time 15 day
[15] = Toxicity in Kunming mouse assessed as number of mouse survived at 40 mg/kg, po measured for 15 days; assay type: organism-based; settings: in vivo, 360 h, time 15 day
Mus musculus [16] = experiment: Anti-inflammatory activity in C57BL/6 mouse model of DSS-induced acute ulcerative colitis assessed as reduction in p65 expression in colon at 50 mg/kg, po administered once a day for 7 days by immunohistochemical analysis; assay type: functional, organism-based; settings: time 7.0 day
[17] = Toxicity in Kunming mouse assessed as number of mouse survived at 66 mg/kg, po measured for 15 days; assay type: organism-based; settings: in vivo, 360 h, time 15 day
[18] = Toxicity in Kunming mouse assessed as number of mouse survived at 42 mg/kg, po measured for 15 days; assay type: organism-based; settings: in vivo, 360 h, time 15 day
[19] = Toxicity in Kunming mouse assessed as increase in body weight at 42 mg/kg, po measured for 15 days (reference value: 12.38%); assay type: organism-based; settings: in vivo, 360 h, time 15 day
[20] = Toxicity in Kunming mouse assessed as number of mouse survived at 53 mg/kg, po measured for 15 days; assay type: organism-based; settings: in vivo, 360 h, time 15 day
Mus musculus [21] = experiment: Anti-inflammatory activity in C57BL/6 mouse model of DSS-induced acute ulcerative colitis assessed as reduction in ulcerations at 100 to 300 mg/kg, po administered once a day for 7 days by H and E staining based analysis; assay type: functional, organism-based; settings: dose 100-300 mg/kg, time 7.0 day

| Structure (SMILES) | selectivity ratio [1] | IC50 [2] [µM] | CC50 at 24 h [3] [µM] | selectivity ratio [4] | CC50 at 4 h [5] [µM] | IC50 (RAW264.7 [6]) [µM] | other results |
| --- | --- | --- | --- | --- | --- | --- | --- |
| COc1ccc(C#CC2CC3OC2c2cc(OC)c(OC)cc23)cc1 (centres undefined) | 0.99 | 133 | 184 | 1.48 | 198 | 185 |  |
| C1=CC2OC1c1ccccc12 |  | 19.7 | > 200 | 5.65 | 111 | > 200 | inhibition at 200 µM (RAW264.7 [7]): ~30% |
| COc1ccc(C#CC2CC3OC2c2cc(Br)c(Br)cc23)cc1 (centres undefined) | 1.07 | 39.4 | 198 | 4.26 | 140 | 186 |  |
| COc1ccc(C#CC2CC3OC2c2ccccc23)cc1 (centres undefined) | 1.19 | 157 | 191 | 1.15 | 181 | 161 |  |
| COc1ccc(OC)c2c1C1C=CC2O1 |  | 24.6 | > 200 | 4.79 | 118 | > 200 | inhibition at 200 µM (RAW264.7 [7]): ~30% |
| COC(=O)C1=C(C(=O)OC)C2C=CC1O2 | 3.1 | 96.1 | 12.8 | 1.04 | 99.9 | 4.12 | MTD [8]: 40 mg/kg; Activity [9]: Toxic; Activity [10]: 1; Activity [11]: 10.6%; Activity (Mus musculus [12]): inactive; Activity [13]: 3; Activity [14]: 1; Activity [15]: 0 |
| CSC(=N)N | > 15.8 |  | > 200 |  |  | 12.6 |  |
| C[C@@H]1C[C@H]2[C@@H]3CCC4=CC(=O)C=C[C@]4(C)[C@@]3(F)[C@@H](O)C[C@]2(C)[C@@]1(O)C(=O)CO [DEXAMETHASONE] |  | 12.2 |  | > 16.4 | > 200 |  |  |
| Nc1ccc(O)c(C(=O)O)c1 |  |  |  |  |  |  | Activity (Mus musculus [16]): inactive |
| O=C1OC(=O)C2C3CCC(O3)C12 (centres undefined) [DEMETHYL-CANTHARIDIN] | 0.79 | 105 | 78.1 | > 1.91 | > 200 | 99.1 | MTD [8]: 53 mg/kg; Activity [10]: 3; Activity (Mus musculus [12]): inactive; Activity [17]: 1; Activity [18]: 0; Activity [19]: 15.62%; Activity [20]: 0 |
| COC(=O)C1=C(C(=O)OC)C2OC1CC2C#Cc1ccccc1OC (centres undefined) | 1.45 | 9.92 | 5.46 | 3.09 | 30.7 | 3.77 | Activity (Mus musculus [21]): Active |
| COc1cc2c(cc1OC)C1C=CC2O1 |  | 19.9 | > 200 | 5.72 | 114 | > 200 | inhibition at 200 µM (RAW264.7 [7]): ~30% |
| COC(=O)C1=C(C(=O)OC)C2OC1CC2C#Cc1ccc(Cl)cc1 (centres undefined) | 1.48 | 12 | 5.23 | 1.74 | 20.9 | 3.53 |  |
| COC(=O)C1=C(C(=O)OC)C2OC1CC2C#Cc1ccc(Br)cc1 (centres undefined) | 1.46 | 4.42 | 5.06 | 4.9 | 21.7 | 3.47 |  |
| COC(=O)C1=C(C(=O)OC)C2OC1CC2C#Cc1ccccc1 (centres undefined) | 1.53 | 19.3 | 5.69 | 3.21 | 62.1 | 3.72 |  |
| CCOC(=O)C1=C(C(=O)OCC)C2OC1CC2C#Cc1ccc(OC)cc1 (centres undefined) | 3.73 | 12.1 | 18.9 | 4.34 | 52.8 | 5.07 |  |
| COC(=O)C1=C(C(=O)OC)C2OC1CC2C#Cc1ccc(OC)cc1 (centres undefined) | 4.15 | 24.9 | 7.51 | 0.9 | 22.4 | 1.81 |  |
| CCOC(=O)C1=C(C(=O)OCC)C2C=CC1O2 | 5.28 | 33.7 | 20.4 | 1.77 | 59.9 | 3.86 | MTD [8]: 57 mg/kg; Activity [9]: Toxic; Activity [10]: 1; Activity [11]: 2.31%; Activity (Mus musculus [12]): inactive; Activity [13]: 3; Activity [14]: 0; Activity [15]: 0 |
| Brc1cc2c(cc1Br)C1C=CC2O1 |  | 71.8 | > 200 | 2.7 | 194 | > 200 | inhibition at 200 µM (RAW264.7 [7]): ~30% |
| COc1ccc(C#CC2CC3OC2c2c(OC)ccc(OC)c23)cc1 (centres undefined) | 1.05 | 137 | 200 | 1.45 | 199 | 190 |  |
| CC(C)(C)OC(=O)C1=C(C(=O)OC(C)(C)C)C2C=CC1O2 | 3.46 | 42 | 12.8 | 1.91 | 80.3 | 3.7 |  |
| COC(=O)C1=C(C(=O)OC)C2OC1CC2C#Cc1cc(OC)cc(OC)c1 (centres undefined) | 1.37 | 6.3 | 5.06 | 5.45 | 34.4 | 3.7 |  |
| C[C@@]12C(=O)OC(=O)[C@]1(C)[C@H]1CC[C@@H]2O1 [CANTHARIDIN] | 0.38 |  | 3.88 |  |  | 10.2 |  |
| COC(=O)C1=C(C(=O)OC)C2OC1CC2C#Cc1ccc(F)cc1 (centres undefined) | 1.67 | 5.58 | 6.25 | 4.75 | 26.5 | 3.75 |  |
